Test results published in article doi:10.1101/2024.05.26.595989v1 (biorxiv, 2024).
Like-named read-outs stand apart in the source and are kept apart here.

What was measured:
[1] = target: T1, PDI (PDIA1), purified / recombinant wild-type human PDI (Homo sapiens, UniProt P07237); assay: biochemical
[2] = target: T1, PDI (PDIA1), purified / recombinant wild-type human PDI; assay: biochemical; remark: listed apart in the source

T1 sequence (P07237 18-508): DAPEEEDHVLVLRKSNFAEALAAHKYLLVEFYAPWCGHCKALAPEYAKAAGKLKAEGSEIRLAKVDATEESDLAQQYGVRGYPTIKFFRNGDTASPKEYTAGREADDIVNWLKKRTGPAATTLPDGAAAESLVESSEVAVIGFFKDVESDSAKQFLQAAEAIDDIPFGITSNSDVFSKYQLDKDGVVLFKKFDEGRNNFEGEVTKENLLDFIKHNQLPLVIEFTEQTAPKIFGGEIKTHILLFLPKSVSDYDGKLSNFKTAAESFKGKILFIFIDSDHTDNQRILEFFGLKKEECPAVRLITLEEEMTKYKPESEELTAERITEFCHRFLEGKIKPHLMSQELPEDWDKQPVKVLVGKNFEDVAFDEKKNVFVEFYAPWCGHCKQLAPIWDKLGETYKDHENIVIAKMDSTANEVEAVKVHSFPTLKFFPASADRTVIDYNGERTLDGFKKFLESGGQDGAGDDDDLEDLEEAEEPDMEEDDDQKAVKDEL

| Kd [1] [µM] | Kd [2] [µM] | SMILES |
| --- | --- | --- |
| 0.0242 |  | C[C@]12CC[C@@H]3c4cc(O)c(O)cc4CC[C@H]3[C@@H]1CCC2=O [2-OH-E1, 1,3,5([10])-Estratrien-2,3-diol-17-one] |
|  | 0.0613 to 0.0683 | C[C@]12CC[C@@H]3c4cc(O)c(O)cc4CC[C@H]3[C@@H]1CC[C@@H]2O [2-OH-E2, 1,3,5([10])-estratrien-2,3,17β-triol] |
